Reference: ChEMBL document CHEMBL1201862, “PubChem BioAssay data set” (2004)
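Results reflect a 48-hour exposure of cells in 96-well plates to compound at five concentrations. GI50: concentration for 50% inhibition of growth.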 Active and inactive are the calls of the source. Rule as the data show it: active = GI50 up to about 1.1 µM and inactive = higher.

Columns and labels:
Assay in all cases: NCI tumour cell line growth inhibition, 48 h
HCT-116 = tested on: HCT-116
NCI-H522 = tested on: NCI-H522
M14 = tested on: M14
SF-268 = tested on: SF-268
DMS-273 = tested on: DMS-273
CAKI-1 = tested on: CAKI-1
Malme-3M = tested on: Malme-3M
UACC-257 = tested on: UACC-257
HOP-62 = tested on: HOP-62
ACHN = tested on: ACHN
OVCAR-4 = tested on: OVCAR-4
U-251 = tested on: U-251
SNB-19 = tested on: SNB-19
SK-OV-3 = tested on: SK-OV-3
IGROV-1 = tested on: IGROV-1
SF-539 = tested on: SF-539
SK-MEL-5 = tested on: SK-MEL-5
KM12 = tested on: KM12

Measured: GI50

O=C(Cc1ccccc1)NN1C(=O)C(Cl)C1c1cccc(O)c1 (centres undefined)
inactive: HCT-116 13.6 µM | NCI-H522 9.23 µM | M14 15.3 µM | SF-268 21.1 µM | DMS-273 16.1 µM | CAKI-1 17.9 µM | Malme-3M 31.6 µM | UACC-257 18.2 µM | HOP-62 27.2 µM | ACHN 16.4 µM | OVCAR-4 17.7 µM | U-251 11.9 µM | SNB-19 42.7 µM | SK-OV-3 28.2 µM | IGROV-1 17.2 µM

CCOC(=O)C(C)(C)Oc1ccc2c(-c3ccc(Cl)cc3)c(-c3ccc(Cl)cc3)c(=O)oc2c1
inactive: HCT-116 89.5 µM | SF-539 > 100 µM | M14 > 100 µM | SF-268 > 100 µM | DMS-273 > 100 µM | Malme-3M > 100 µM | UACC-257 > 100 µM | SK-MEL-5 98.2 µM | HOP-62 > 100 µM | ACHN > 100 µM | OVCAR-4 > 100 µM | U-251 > 100 µM | SNB-19 > 100 µM | IGROV-1 > 100 µM

COc1ccc(NC(=O)C2C(=O)N(c3ccc(OC)cc3)C(=O)/C2=N/O)cc1 (centres undefined)
inactive: HCT-116 21.6 µM | NCI-H522 22.7 µM | SF-539 19.6 µM | M14 34 µM | SF-268 24.8 µM | DMS-273 26.8 µM | CAKI-1 32.7 µM | Malme-3M 20.4 µM | UACC-257 41.6 µM | HOP-62 23.5 µM | ACHN 21.8 µM | OVCAR-4 17.2 µM | U-251 22.3 µM | SNB-19 29.4 µM | KM12 23 µM | SK-OV-3 20.2 µM | IGROV-1 40.1 µM

Cc1ccc(NC(=O)/C(Cl)=C(/Cl)C(=O)O)cc1
inactive: HCT-116 15 µM | NCI-H522 1.9 µM | M14 15.2 µM | SF-268 23 µM | DMS-273 22.1 µM | CAKI-1 17.3 µM | Malme-3M 15.6 µM | UACC-257 22 µM | SK-MEL-5 28.4 µM | HOP-62 71.4 µM | ACHN 16.5 µM | OVCAR-4 18.2 µM | U-251 17.1 µM | SNB-19 > 100 µM | KM12 18.7 µM | SK-OV-3 18.8 µM | IGROV-1 29.6 µM

CCOC(=O)C(C)(C)Oc1ccc2c(-c3ccccc3)cc(=O)oc2c1
inactive: HCT-116 35.6 µM | SF-539 31.8 µM | M14 36.6 µM | SF-268 45.8 µM | DMS-273 29 µM | Malme-3M 28.6 µM | UACC-257 28.7 µM | SK-MEL-5 13.9 µM | HOP-62 23.1 µM | ACHN 40.2 µM | OVCAR-4 35.4 µM | U-251 36.3 µM | SNB-19 42.1 µM | IGROV-1 25.1 µM

CN(C)CCNC(=O)c1cccc2c1nc(-c1ccc(F)cc1)c1ccccc12
inactive: HCT-116 2.46 µM | SF-539 3.63 µM | M14 5.81 µM | SF-268 6.58 µM | DMS-273 2.15 µM | CAKI-1 3.27 µM | UACC-257 2.95 µM | SK-MEL-5 2.34 µM | HOP-62 1.22 µM | ACHN 2.64 µM | OVCAR-4 5.94 µM | U-251 3.18 µM | SNB-19 6.93 µM | KM12 5.93 µM | SK-OV-3 8.47 µM | IGROV-1 2.84 µM

COC(=O)C1Cc2c([nH]c3ccccc23)[C@H](CC(C)C)N1 (some centres undefined)
inactive: HCT-116 > 100 µM | NCI-H522 > 100 µM | SF-539 > 100 µM | M14 > 100 µM | SF-268 > 100 µM | DMS-273 > 100 µM | Malme-3M > 100 µM | UACC-257 > 100 µM | HOP-62 > 100 µM | ACHN > 100 µM | U-251 > 100 µM | SNB-19 > 100 µM | KM12 > 100 µM | SK-OV-3 > 100 µM | IGROV-1 > 100 µM

CCCCCCCCCCSS(=O)(=O)c1ccc(C)cc1
inactive: HCT-116 12.5 µM | NCI-H522 6.4 µM | SF-539 1.87 µM | M14 10.4 µM | SF-268 6.12 µM | DMS-273 9.27 µM | CAKI-1 15.9 µM | Malme-3M 15.6 µM | UACC-257 8.28 µM | SK-MEL-5 5.36 µM | HOP-62 19.9 µM | ACHN 16.9 µM | OVCAR-4 15.6 µM | U-251 4 µM | SNB-19 10.5 µM | KM12 9.64 µM | SK-OV-3 22.3 µM | IGROV-1 15.1 µM

Nc1nc(O)c2c(ncn2CC(O)CO)n1 (centres undefined)
inactive: HCT-116 > 100 µM | NCI-H522 > 100 µM | SF-539 > 100 µM | M14 > 100 µM | SF-268 > 100 µM | DMS-273 > 100 µM | CAKI-1 > 100 µM | Malme-3M > 100 µM | UACC-257 > 100 µM | SK-MEL-5 > 100 µM | HOP-62 > 100 µM | ACHN > 100 µM | OVCAR-4 > 100 µM | U-251 > 100 µM | SNB-19 > 100 µM | KM12 > 100 µM | SK-OV-3 > 100 µM | IGROV-1 > 100 µM

[O-][S+](c1ccc(O)cc1)c1ccc(O)cc1
inactive: HCT-116 > 100 µM | NCI-H522 > 100 µM | SF-539 > 100 µM | M14 > 100 µM | SF-268 > 100 µM | DMS-273 > 100 µM | CAKI-1 > 100 µM | Malme-3M > 100 µM | UACC-257 > 100 µM | SK-MEL-5 > 100 µM | HOP-62 > 100 µM | OVCAR-4 > 100 µM | U-251 > 100 µM | SNB-19 > 100 µM | KM12 > 100 µM | SK-OV-3 > 100 µM | IGROV-1 > 100 µM

CC1(OCc2ccccc2)C(=O)N2C1N(C(=O)OCc1ccccc1)CC2(C)C (centres undefined)
inactive: HCT-116 69.8 µM | SF-539 > 100 µM | M14 66.8 µM | SF-268 > 100 µM | DMS-273 53.6 µM | Malme-3M 80 µM | UACC-257 36.6 µM | SK-MEL-5 17.9 µM | HOP-62 82.4 µM | ACHN 61.1 µM | OVCAR-4 > 100 µM | U-251 49.3 µM | SNB-19 54.2 µM | IGROV-1 57.3 µM

Cc1cccc(C(C)C)c1NC(=O)CCl
inactive: HCT-116 50.2 µM | NCI-H522 15.3 µM | SF-539 > 100 µM | M14 65.8 µM | SF-268 38 µM | DMS-273 69.2 µM | CAKI-1 27.9 µM | Malme-3M 81.7 µM | UACC-257 > 100 µM | SK-MEL-5 91.4 µM | HOP-62 41.9 µM | ACHN 73.3 µM | OVCAR-4 29.4 µM | U-251 40.7 µM | SNB-19 36.5 µM | KM12 55.7 µM | SK-OV-3 67.8 µM

C=CC(Br)(CBr)CCC(Br)C(C)(C)Br (centres undefined)
inactive: HCT-116 14.5 µM | NCI-H522 15.8 µM | SF-539 15.9 µM | M14 15 µM | SF-268 17.1 µM | DMS-273 10.7 µM | CAKI-1 22.8 µM | Malme-3M 16.6 µM | UACC-257 13.9 µM | SK-MEL-5 14.5 µM | HOP-62 21 µM | ACHN 12.7 µM | OVCAR-4 17.1 µM | U-251 14.2 µM | KM12 9.14 µM | SK-OV-3 19.4 µM | IGROV-1 15.2 µM
